Experimental data as given in patent US4725592A, “1-Acyloxyalkyl esters of cephalosporin” (Takeda Chemical Industries, Ltd., priority 1983, dated 1988).
Like-named read-outs stand apart in the source and are kept apart here.

Assays:
[1] = parameters: species or system mice; conditions: mouse, in vivo; for Bioavailability / Plasma level of non-ester (Compound [II]) 2 hr / AUC: 120 min; for Plasma level of non-ester (Compound [II]) 0.25 hr / Plasma level of non-ester (Compound [II]) 0.5 hr / Plasma level of non-ester (Compound [II]) 1.0 hr / Plasma level of non-ester (Compound [II]) 2 hr / AUC: po, 100 mg/kg; for Plasma level of non-ester (Compound [II]) 0.25 hr: 15 min; for Plasma level of non-ester (Compound [II]) 0.5 hr: 30 min; for Plasma level of non-ester (Compound [II]) 1.0 hr: 60 min
Procedure: The compounds of Examples (compound Nos. 1 and 2) and, as a control compound, the pivaloyloxymethyl ester of compound [II] (hereinafter referred to briefly as compound A) are administered orally to mice, each compound to one animal, in the dose of 100 mg/kg in terms of the non-ester, i.e. compound [II]. […] As a control, compound [II] is subcutaneously administered to a mouse and the AUC value is calculated as above.

Staphylococcus aureus = conditions: Antimicrobial Agent and Chemotherapy 14, 557-568 (1978); cited from earlier work
Escherichia coli = conditions: Antimicrobial Agent and Chemotherapy 14, 557-568 (1978); cited from earlier work
Klebsiella pneumoniae = conditions: Antimicrobial Agent and Chemotherapy 14, 557-568 (1978); cited from earlier work
Proteus vulgaris = conditions: Antimicrobial Agent and Chemotherapy 14, 557-568 (1978); cited from earlier work
Proteus mirabilis = conditions: Antimicrobial Agent and Chemotherapy 14, 557-568 (1978); cited from earlier work
Proteus morganii = conditions: Antimicrobial Agent and Chemotherapy 14, 557-568 (1978); cited from earlier work

For `CN(C)CCn1nnnc1SCC1=C(C(=O)OCOC(=O)C(C)(C)C)N2C(=O)[C@@H](NC(=O)Cc3csc(N)n3)[C@H]2SC1` [A, pivaloyloxymethyl ester of compound [II]], the Bioavailability [1] was 41.8%, the “Plasma level of non-ester (Compound [II]) 0.25 hr” value [1] was 21.0 µg/mL and the “Plasma level of non-ester (Compound [II]) 0.5 hr” value [1] was 16.2 µg/mL. The “Plasma level of non-ester (Compound [II]) 1.0 hr” value [1] was 6.1 µg/mL and the “Plasma level of non-ester (Compound [II]) 2 hr” value [1] was 0.6 µg/mL.
In the case of `CC(C)CC(=O)OC(OC(=O)C1=C(CSc2nnnn2CCN(C)C)CS[C@@H]2[C@H](NC(=O)Cc3csc(N)n3)C(=O)N12)C(C)C.Cl.Cl` (stereo partly drawn) [Compound No. 1, 1-(3-Methylbutyryloxy)-2-methylpropyl 7β-[2-(2-aminothiazol-4-yl)acetamido]-3-[[[1-(2-dimethylaminoethyl)-1H-tetrazol-5-yl]thio]methyl]ceph-3-em-4-carboxylate dihydrochloride], the Bioavailability [1] is reported as 91.0%, the “Plasma level of non-ester (Compound [II]) 0.25 hr” value [1] is reported as 55.4 µg/mL and the “Plasma level of non-ester (Compound [II]) 0.5 hr” value [1] is reported as 37.0 µg/mL. The “Plasma level of non-ester (Compound [II]) 1.0 hr” value [1] was 8.46 µg/mL, the AUC [1] was 35.3 µg·h/mL and the “Plasma level of non-ester (Compound [II]) 2 hr” value [1] was 2.5 µg/mL.
In the case of `CCCC(OC(=O)CC(C)C)OC(=O)C1=C(CSc2nnnn2CCN(C)C)CS[C@@H]2[C@H](NC(=O)Cc3csc(N)n3)C(=O)N12.Cl.Cl` (stereo partly drawn) [Compound No. 2, 1-(3-Methylbutyryloxy)butyl 7β-[2-(2-aminothiazol-4-yl)acetamido]-3-[[[1-(2-dimethylaminoethyl) -1H-tetrazol-5-yl]thio]methyl]ceph-3-em-4-carboxylate dihydrochloride], the Bioavailability [1] is reported as 81.4%, the “Plasma level of non-ester (Compound [II]) 0.25 hr” value [1] is reported as 74.3 µg/mL and the “Plasma level of non-ester (Compound [II]) 0.5 hr” value [1] is reported as 21.6 µg/mL. The “Plasma level of non-ester (Compound [II]) 1.0 hr” value [1] was 5.36 µg/mL, the AUC [1] was 31.6 µg·h/mL and the “Plasma level of non-ester (Compound [II]) 2 hr” value [1] was 1.8 µg/mL.
In the case of `CN(C)CCn1nnnc1SCC1=C(C(=O)O)N2C(=O)[C@@H](NC(=O)Cc3csc(N)n3)[C@H]2SC1` [Compound [II], 7β-[2-(2-aminothiazol-4-yl)acetamido]-3-[[[1-(2-dimethylaminoethyl)-1H-tetrazol-5-yl]thio]methyl]ceph-3-em-4-carboxylic acid], the Bioavailability ([1]; sc) is listed as 100%, the antibacterial activity (Staphylococcus aureus) is listed as “potent antibacterial activity” and the antibacterial activity (Escherichia coli) is listed as “potent antibacterial activity”. The antibacterial activity (Klebsiella pneumoniae) was “potent antibacterial activity”, the antibacterial activity (Proteus vulgaris) was “potent antibacterial activity” and the antibacterial activity (Proteus mirabilis) was “potent antibacterial activity”. For the same compound, the antibacterial activity (Proteus morganii) was “potent antibacterial activity”.
